The values below are quoted from earlier work in US6699871B2, “Beta-amino heterocyclic dipeptidyl peptidase inhibitors for the treatment or prevention of diabetes” (Merck & Co., Inc., priority 2001, dated 2004).

For data set [1], the system named is hematopoiesis. The following applies: mouse, cyclophosphamide-induced neutropenia.
In data set [2] the target is T1, DP-IV (Homo sapiens, UniProt P27487).
T1 construct: GRF is rapidly degraded in plasma to GRF[3-44]
T1 sequence (P27487 whole entry): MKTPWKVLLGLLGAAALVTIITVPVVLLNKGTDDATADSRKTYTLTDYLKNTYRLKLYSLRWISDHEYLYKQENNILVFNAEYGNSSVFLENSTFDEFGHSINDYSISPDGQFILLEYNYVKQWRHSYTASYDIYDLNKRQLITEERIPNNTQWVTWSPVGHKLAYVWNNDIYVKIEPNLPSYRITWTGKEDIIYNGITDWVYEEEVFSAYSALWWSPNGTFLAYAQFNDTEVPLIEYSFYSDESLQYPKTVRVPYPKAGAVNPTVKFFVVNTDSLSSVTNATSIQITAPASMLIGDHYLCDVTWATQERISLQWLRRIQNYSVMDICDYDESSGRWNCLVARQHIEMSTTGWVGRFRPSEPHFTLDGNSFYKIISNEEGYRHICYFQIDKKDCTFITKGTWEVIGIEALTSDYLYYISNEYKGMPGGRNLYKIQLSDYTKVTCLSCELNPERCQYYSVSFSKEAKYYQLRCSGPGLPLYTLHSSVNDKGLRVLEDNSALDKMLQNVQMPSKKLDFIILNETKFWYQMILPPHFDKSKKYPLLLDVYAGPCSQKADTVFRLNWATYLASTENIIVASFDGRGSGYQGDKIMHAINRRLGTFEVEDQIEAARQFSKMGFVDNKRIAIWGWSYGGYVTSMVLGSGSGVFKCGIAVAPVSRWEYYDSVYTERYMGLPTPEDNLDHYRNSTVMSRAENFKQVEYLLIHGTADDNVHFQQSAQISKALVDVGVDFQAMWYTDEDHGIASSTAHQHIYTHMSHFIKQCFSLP

Regarding `CC(C)[C@H](N)C(=O)N1CCC[C@H]1B(O)O` [Val-Boro-Pro], the effect on hematopoiesis entry in data set [1] is reported as “stimulated hematopoiesis”. In the case of `CC[C@H](C)[C@H](N)C(=O)N1CCC[C@H]1C(=O)N[C@H](C(=O)O)[C@@H](C)CC` [diprotin A], the “degradation of GRF in plasma to GRF[3-44]” value in data set [2] is “prevented”.
